Values quoted from earlier work, collected in patent publication US20110305738A1, “Oxygenating Oral Compositions” (priority 2010, published 2011).

Key:
[1] = not given; remark: listed apart in the source

NC(N)=O.OO [Carbamide peroxide]
water solubility (at 20 °C): 800 grams per liter
saturated solution concentration of carbamide peroxide (water at 20° C.): 44.4%
pH upon dissolution ([1]; 1% solution): approximately 4.05
pH when solubilized in water ([1]; saturated solution): approximately 3.40
